The record followed here is patent publication US20230146675A1, “PYRIMIDO[5,4-d]PYRIMIDINE DERIVATIVES AS ENT INHIBITORS FOR THE TREATMENT OF CANCERS, AND COMBINATION THEREOF WITH ADENOSINE RECEPTOR ANTAGONISTS” (ITEOS BELGIUM SA, priority 2020, published 2023).

A word on the IC50: it is the concentration that gives 50% inhibition. Higher therefore signals lower potency.

The assay concerns the target T1, human ENT1 (Homo sapiens, UniProt Q99808).
T1 sequence (Q99808 1-456): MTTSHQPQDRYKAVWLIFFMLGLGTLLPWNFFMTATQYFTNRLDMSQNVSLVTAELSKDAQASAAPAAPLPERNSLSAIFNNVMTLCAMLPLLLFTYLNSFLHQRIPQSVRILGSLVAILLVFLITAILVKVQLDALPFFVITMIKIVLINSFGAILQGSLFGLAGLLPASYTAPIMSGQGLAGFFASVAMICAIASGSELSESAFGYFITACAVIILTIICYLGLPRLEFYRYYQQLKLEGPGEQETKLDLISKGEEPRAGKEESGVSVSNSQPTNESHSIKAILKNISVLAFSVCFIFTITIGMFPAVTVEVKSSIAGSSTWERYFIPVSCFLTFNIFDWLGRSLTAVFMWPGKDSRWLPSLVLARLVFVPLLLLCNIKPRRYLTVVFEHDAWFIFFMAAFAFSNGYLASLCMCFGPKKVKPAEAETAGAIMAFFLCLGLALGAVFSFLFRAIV
In words: ENT1 binding assay (competition with Sahenta-DY647 on JAR cells). Further details: JAR cells expressing ENT1 were bought from ATCC; host or cells: JAR cells. The note with it: binned IC50. The essentials:
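JAR cells were incubated with test compounds and the fluorescent ligand Sahenta-DY647 in competition. Plates were washed twice by centrifugation (4 min, 400 rcf, 4 °C). Binding potency was derived from the final fluorescence.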
`COCCN(CCOC)c1nc(N2CCC(OC)CC2)c2nc(N(CCOC)CCOC)nc(N3CCC(C#N)CC3)c2n1` [Compound 90, 1-(2,6-bis(bis(2-methoxyethyl)amino)-8-(4-methoxypiperidin-1-yl)pyrimido[5,4-d]pyrimidin-4-yl)piperidine-4-carbonitrile] gave an IC50 of 100 to 500 nM.

In the case of `COCCN(CCOC)c1nc(N2CCC(C)C2)c2nc(N(CCOC)CCOC)nc(N3CCC(OC)CC3)c2n1` (centres unmarked) [Compound 91, N2,N2,N6,N6-tetrakis(2-methoxyethyl)-4-(4-methoxypiperidin-1-yl)-8-(3-methylpyrrolidin-1-yl)pyrimido[5,4-d]pyrimidine-2,6-diamine], the half-maximal inhibitory concentration (IC50) is 100 to 500 nM.

`COCCN(CCOC)c1nc(N2CC(CO)C2)c2nc(N(CCOC)CCOC)nc(N3CCC(OC)CC3)c2n1` [Compound 92, (1-(2,6-bis(bis(2-methoxyethyl)amino)-8-(4-methoxypiperidin-1-yl)pyrimido[5,4-d]pyrimidin-4-yl)azetidin-3-yl)methanol]: the IC50 is 100 to 500 nM.

For the compound `COCCN(CCOC)c1nc(N2CC[C@@H](O)C2)c2nc(N(CCOC)CCOC)nc(N3CCC(OC)CC3)c2n1` [Compound 93, (R)-1-(2,6-bis(bis(2-methoxyethyl)amino)-8-(4-methoxypiperidin-1-yl)pyrimido[5,4-d]pyrimidin-4-yl)pyrrolidin-3-ol], the 50% inhibitory concentration (IC50) was in the range of 500 to 1000 nM.

For the compound `COCCN(CCOC)c1nc(N2CCC(O)C2)c2nc(N(CCOC)CCOC)nc(N3CCC(OC)CC3)c2n1` (centres unmarked) [Compound 94, 1-(2,6-bis(bis(2-methoxyethyl)amino)-8-(4-methoxypiperidin-1-yl)pyrimido[5,4-d]pyrimidin-4-yl)pyrrolidin-3-ol], the IC50 was in the range of 500 to 1000 nM.

As to `COCCN(CCOC)c1nc(N2CCC(OC)CC2)c2nc(N(CCOC)CCOC)nc(NCCc3cnc[nH]3)c2n1` [Compound 95, N4-(2-(1H-imidazol-5-yl)ethyl)-N2,N2,N6,N6-tetrakis(2-methoxyethyl)-8-(4-methoxypiperidin-1-yl)pyrimido[5,4-d]pyrimidine-2,4,6-triamine], the IC50 is 500 to 1000 nM.

In turn, `COCCN(CCOC)c1nc(N2CCCC(OC)C2)c2nc(N(CCOC)CCOC)nc(N3CCC(OC)CC3)c2n1` (centres unmarked) [Compound 96, N2,N2,N6,N6-tetrakis(2-methoxyethyl)-4-(3-methoxypiperidin-1-yl)-8-(4-methoxypiperidin-1-yl)pyrimido[5,4-d]pyrimidine-2,6-diamine] came in with an IC50 of 100 to 500 nM.

Compound `COCCN(CCOC)c1nc(N2CCCN(C(C)=O)CC2)c2nc(N(CCOC)CCOC)nc(N3CCC(OC)CC3)c2n1` [Compound 98, 1-(4-(2,6-bis(bis(2-methoxyethyl)amino)-8-(4-methoxypiperidin-1-yl)pyrimido[5,4-d]pyrimidin-4-yl)-1,4-diazepan-1-yl)ethanone] yielded an IC50 of 100 to 500 nM.

With `COCCN(CCOC)c1nc(N2CC(F)C2)c2nc(N(CCOC)CCOC)nc(N3CCC(OC)CC3)c2n1` [Compound 99, 4-(3-fluoroazetidin-1-yl)-N2,N2,N6,N6-tetrakis(2-methoxyethyl)-8-(4-methoxypiperidin-1-yl)pyrimido[5,4-d]pyrimidine-2,6-diamine], the half-inhibitory concentration (IC50) is 100 to 500 nM.

For the compound `COCCN(CCOC)c1nc(N2CC(C)(C)C2)c2nc(N(CCOC)CCOC)nc(N3CCC(OC)CC3)c2n1` [Compound 100, 4-(3,3-dimethylazetidin-1-yl)-N2,N2,N6,N6-tetrakis(2-methoxyethyl)-8-(4-methoxypiperidin-1-yl)pyrimido[5,4-d]pyrimidine-2,6-diamine], the IC50 lay in the range of 100 to 500 nM.

Compound `COCCN(CCOC)c1nc(N2CC(C)(O)C2)c2nc(N(CCOC)CCOC)nc(N3CCC(OC)CC3)c2n1` [Compound 101, 1-(2,6-bis(bis(2-methoxyethyl)amino)-8-(4-methoxypiperidin-1-yl)pyrimido[5,4-d]pyrimidin-4-yl)-3-methylazetidin-3-ol] yielded a half-inhibitory concentration (IC50) of 500 to 1000 nM.

Turning to `COCCN(CCOC)c1nc(N2CC[C@H](F)C2)c2nc(N(CCOC)CCOC)nc(N3CCC(OC)CC3)c2n1` [Compound 102, (S)-4-(3-fluoropyrrolidin-1-yl)-N2,N2,N6,N6-tetrakis(2-methoxyethyl)-8-(4-methoxypiperidin-1-yl)pyrimido[5,4-d]pyrimidine-2,6-diamine], the half-inhibitory concentration (IC50) is under 100 nM.

On to `COCCN(CCOC)c1nc(N2CC[C@@H](F)C2)c2nc(N(CCOC)CCOC)nc(N3CCC(OC)CC3)c2n1` [Compound 103, (R)-4-(3-fluoropyrrolidin-1-yl)-N2,N2,N6,N6-tetrakis(2-methoxyethyl)-8-(4-methoxypiperidin-1-yl)pyrimido[5,4-d]pyrimidine-2,6-diamine], for which the IC50 is 100 to 500 nM.

Compound `COCCN(CCOC)c1nc(N2CCC(F)C2)c2nc(N(CCOC)CCOC)nc(N3CCC(OC)CC3)c2n1` (centres unmarked) [Compound 104, 4-(3-fluoropyrrolidin-1-yl)-N2,N2,N6,N6-tetrakis(2-methoxyethyl)-8-(4-methoxypiperidin-1-yl)pyrimido[5,4-d]pyrimidine-2,6-diamine] came in with an IC50 of 100 to 500 nM.

`COCCN(CCOC)c1nc(N2CC(F)(F)C2)c2nc(N(CCOC)CCOC)nc(N3CCC(OC)CC3)c2n1` [Compound 105, 4-(3,3-difluoroazetidin-1-yl)-N2,N2,N6,N6-tetrakis(2-methoxyethyl)-8-(4-methoxypiperidin-1-yl)pyrimido[5,4-d]pyrimidine-2,6-diamine] came in with a half-inhibitory concentration (IC50) of 100 to 500 nM.

Compound `COCCN(CCOC)c1nc(N2CC[C@H](OC)C2)c2nc(N(CCOC)CCOC)nc(N3CCC(OC)CC3)c2n1` [Compound 106, (S)-N2,N2,N6,N6-tetrakis(2-methoxyethyl)-4-(4-methoxypiperidin-1-yl)-8-(3-methoxypyrrolidin-1-yl)pyrimido[5,4-d]pyrimidine-2,6-diamine] yielded a half-inhibitory concentration (IC50) of 100 to 500 nM.

`COCCN(CCOC)c1nc(N2CC[C@@H](OC)C2)c2nc(N(CCOC)CCOC)nc(N3CCC(OC)CC3)c2n1` [Compound 107, (R)-N2,N2,N6,N6-tetrakis(2-methoxyethyl)-4-(4-methoxypiperidin-1-yl)-8-(3-methoxypyrrolidin-1-yl)pyrimido[5,4-d]pyrimidine-2,6-diamine]: the half-inhibitory concentration (IC50) was 100 to 500 nM.

In turn, `COCCN(CCOC)c1nc(N2CCC(OC)CC2)c2nc(N(CCOC)CCOC)nc(N3CCC(F)CC3)c2n1` [Compound 108, 4-(4-fluoropiperidin-1-yl)-N2,N2,N6,N6-tetrakis(2-methoxyethyl)-8-(4-methoxypiperidin-1-yl)pyrimido[5,4-d]pyrimidine-2,6-diamine] showed an IC50 of under 100 nM.

`COCCN(CCOC)c1nc(N2CCC(F)(F)C2)c2nc(N(CCOC)CCOC)nc(N3CCC(OC)CC3)c2n1` [Compound 109, 4-(3,3-difluoropyrrolidin-1-yl)-N2,N2,N6,N6-tetrakis(2-methoxyethyl)-8-(4-methoxypiperidin-1-yl)pyrimido[5,4-d]pyrimidine-2,6-diamine] yielded an IC50 of 100 to 500 nM.

Consider `COCCN(CCOC)c1nc(N2C[C@@H](C)O[C@@H](C)C2)c2nc(N(CCOC)CCOC)nc(N3CCC(OC)CC3)c2n1` [Compound 110, 4-((2R,6S)-2,6-dimethylmorpholino)-N2,N2,N6,N6-tetrakis(2-methoxyethyl)-8-(4-methoxypiperidin-1-yl)pyrimido[5,4-d]pyrimidine-2,6-diamine], for which the IC50 is under 100 nM.

As to `COCCN(CCOC)c1nc(N2CC(O)(C(F)(F)F)C2)c2nc(N(CCOC)CCOC)nc(N3CCC(OC)CC3)c2n1` [Compound 111, 1-(2,6-bis(bis(2-methoxyethyl)amino)-8-(4-methoxypiperidin-1-yl)pyrimido[5,4-d]pyrimidin-4-yl)-3-(trifluoromethyl)azetidin-3-ol], the concentration for half-maximal inhibition (IC50) was under 100 nM.

In the case of `COCCN(CCOC)c1nc(N2CCC(OC)CC2)c2nc(N(CCOC)CCOC)nc(N(C)CCO)c2n1` [Compound 112, 2-((2,6-bis(bis(2-methoxyethyl)amino)-8-(4-methoxypiperidin-1-yl)pyrimido[5,4-d]pyrimidin-4-yl)(methyl)amino)ethanol], the half-inhibitory concentration (IC50) lay in the range of 100 to 500 nM.

Regarding `COCCN(CCOC)c1nc(N2CCOC(C)C2)c2nc(N(CCOC)CCOC)nc(N3CCC(OC)CC3)c2n1` (centres unmarked) [Compound 113, N2,N2,N6,N6-tetrakis(2-methoxyethyl)-4-(4-methoxypiperidin-1-yl)-8-(2-methylmorpholino)pyrimido[5,4-d]pyrimidine-2,6-diamine], the IC50 lay within 100 to 500 nM.

With `COCCN(CCOC)c1nc(N2CCn3cncc3C2)c2nc(N(CCOC)CCOC)nc(N3CCC(OC)CC3)c2n1` [Compound 114, 4-(5,6-dihydroimidazo[1,5-a]pyrazin-7(8H)-yl)-N2,N2,N6,N6-tetrakis(2-methoxyethyl)-8-(4-methoxypiperidin-1-yl)pyrimido[5,4-d]pyrimidine-2,6-diamine], the IC50 was under 100 nM.

The compound `COCCN(CCOC)c1nc(N2CCCC(CO)C2)c2nc(N(CCOC)CCOC)nc(N3CCC(OC)CC3)c2n1` (centres unmarked) [Compound 115, (1-(2,6-bis(bis(2-methoxyethyl)amino)-8-(4-methoxypiperidin-1-yl)pyrimido[5,4-d]pyrimidin-4-yl)piperidin-3-yl)methanol] registered an IC50 of 100 to 500 nM.

On to `COCCN(CCOC)c1nc(N2CCn3ncnc3C2)c2nc(N(CCOC)CCOC)nc(N3CCC(OC)CC3)c2n1` [Compound 116, 4-(5,6-dihydro-[1,2,4]triazolo[1,5-a]pyrazin-7(8H)-yl)-N2,N2,N6,N6-tetrakis(2-methoxyethyl)-8-(4-methoxypiperidin-1-yl)pyrimido[5,4-d]pyrimidine-2,6-diamine], for which the 50% inhibitory concentration (IC50) is under 100 nM.
